According to article PMC9788692 (2022):

Tests used:
Assay in all cases: in-line probing
[1] = system: 95 Csp (RNA, riboswitch) GGAAUGCUUCCUCCGCCACCGGGCGGAGGGUGAAAAGCGUCCACGGUCUCCCGUAGGUACGGCGCGCUCUGCGCGUUACAAGGGAGCCGCGGGCG; conditions: 100 mM KCl, 20 mM MgCl2, 50 mM Tris-HCl pH 8.3 (23 °C), ~48 h
[2] = system: 105 Mja (RNA, riboswitch) GGAACACCGCUUCUGUCACCGGACAGGAGAAAUGGGGUGUCUGGGAGUUGUCGUAGGUACGGUAUGGUUGCAUGCUAUAAGACAAUUCCUGGGCACCCCUGUUUU; conditions: 100 mM KCl, 20 mM MgCl2; 50 mM Tris-HCl pH 8.3 (23 °C), ~48 h; highest concentration 10 mM
[3] = system: 95 Dsu (RNA, riboswitch) GGAAACUCUUCCCUGUCACCGGAUAGGGAGCCAAGAGGGUUUAUUCCUGCUGCAGGUAAUAUGGCGAAAACCAUUGAAAGGCAGGAAUAAAUCCU; conditions: 100 mM KCl, 20 mM MgCl2; 50 mM Tris-HCl pH 8.3 (23 °C), ~48 h; highest concentration 10 mM
[4] = system: 95 Csp M2 (RNA, riboswitch) GGAAUGCUUCCUCCGCCACCGGGCGGAGGGUGAAAAGCGUCCACGGUCUCCCGUAGGAACGGCGCGCUCUGCGCGUUACAAGGGAGCCGCGGGCG; conditions: 100 mM KCl, 20 mM MgCl2; 50 mM Tris-HCl pH 8.3 (23 °C), ~48 h; highest concentration 10 mM; modulation almost eliminated
[5] = system: 81 Csp (RNA, riboswitch) GGAAUGCUUCCUCCGCCACCGGGCGGAGGGUGAAAAGCGUCCACGGUCUCCCGUAGGUACGGCGCGCUCUGCGCGUUACAA; conditions: 100 mM KCl, 20 mM MgCl2; 50 mM Tris-HCl pH 8.3 (23 °C), ~48 h; weaker than 95 Csp
[6] = weaker than guanidine, data not shown
[7] = highest concentration not stated

Row | Structure (SMILES) | binding [1, 6] | binding [1, 7] | also measured
1 | CNC(=N)N | weak |  | 
2 | N=C(N)N |  |  | binding ([1]; 0.61 µM-20 mM, no saturation, modulation above 1 mM): weak; binding [2]: no; binding [3]: no; binding [4]: weak; binding [5]: weak
3 | N=C(N)NO | weak |  | 
4 | N=C(N)NOCC[C@H](N)C(=O)O |  | no | 

More lines, main results first:

Row | binding [1, 6] | binding [1, 7] | Structure (SMILES) | also measured
5 |  | no | N=C(N)NCCCCN | 
6 |  | no | N=C(N)NCCC[C@H](N)C(=O)O | 
